Experimental data as given in patent publication US9751919B2, “Antimicrobial compositions comprising a hyaluronic acid binding peptide and a β-lactam antibiotic” (priority 2012, dated 2017).
Where “and” joins values, the source holds several entries; their conditions need not be identical. Equal values may be shown once.

Columns and labels:
S. pneumoniae = assay: Checkerboard assay (FIC index); format: cell-based, Streptococcus pneumoniae; settings: antibiotic combined with PEP35;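 further: each agent diluted from 0.03 to 4 times its MIC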
Experimental: (§1) The checkerboard assays were carried out as described by Eliopoulos and Moellering (Chapter 9) in Antibiotic in Laboratory Medicine, Lorian Ed. 1996 as well as Bonapace et al. Diagnostic Microbiology and Infectious Diseases 2002; 44:363-366 and Bonapace et al. Diagnostic Microbiology and Infectious Diseases 2000; 38:43-50. In brief, checkerboard assays were performed in 96 well microtitre trays using an 8-by-8 well configuration. […] 96-well custom designed microtitre plates contained 100 ul/well of cation adjusted Mueller-Hinton broth (eg. for Enterobacteriaceae) with or without lysed horse blood (2-5% V/V) [eg. for S. pneumoniae] and were inoculated to achieve a final concentration of approximately 5×10^5 CFU/ml and incubated in ambient air for 24 hours prior to reading. Colony counts were performed periodically to confirm inocula. Quality control was performed every two weeks using a variety of ATCC QC organisms including; S. pneumoniae 49619, S. aureus 29213, E. faecalis 29212, E. coli 25922 and P. aeruginosa 27853. For all antimicrobials as well as PEP35, CLSI criteria was used.
(§2) The fractional inhibitory concentration index (FIC index) was used to interpret synergy, antagonism or additivity/indifference. FIC index=FIC of drug A+FIC of drug B where:
(§3) The FIC of drug A and drug B is calculated as follows, FIC drug A=MIC of drug A in combination/MIC of drug A alone and FIC of drug B=MIC of drug B in combination/MIC of drug B alone. Synergy is defined as FIC index ≦0.5, additivity/indifference FIC >0.5-4 and antagonism FIC index >4.
(§4) Antimicrobials used included PEP35, cefazolin, ceftriaxone, vancomycin, linezolid, tigecycline and daptomycin versus Gram-positive cocci and PEP35, gentamicin, levofloxacin, piperacillin/tazobactam, meropenem and colistin (Polymyxin E) versus Gram-negative bacilli. These agents were obtained as laboratory grade powders from their respective manufacturers. Stock solutions were prepared and dilutions made as described by the Clinical Laboratory Standards Institute (2005 CLSI).
(§5) Organisms included Gram-positive cocci (2 strains of each): Methicillin-susceptible Staphylococcus aureus (MSSA), community-associated (CA) and healthcare-associated (HA) methicillin-resistant Staphylococcus aureus (MRSA), vancomycin-intermediate Staphylococcus aureus (VISA), vancomycin-resistant Staphylococcus aureus (VRSA), methicillin-resistant Staphylococcus epidermidis (MRSE), Streptococcus pyogenes, Streptococcus agalactiae, Streptococcus pneumoniae, Enterococcus faecalis, Enterococcus faecium and vancomycin-resistant enterococcus (VRE). Gram-negative bacilli tested (2 strains of each) included: E. coli, Pseudomonas aeruginosa, Klebsiella pneumoniae, K. oxytoca, Enterobacter cloacae, P. mirabilis and Stenotrophomonas maltophilia. MIC testing, following two subcultures from frozen stock were determined by the CLSI 2005 approved broth microdilution method.

S. agalactiae = assay: Checkerboard assay (FIC index); format: cell-based, Streptococcus agalactiae; settings: antibiotic combined with PEP35
Experimental: as §1, §2, §3, §4, §5

E. Faecium = assay: Checkerboard assay (FIC index); format: cell-based, Enterococcus faecium; settings: antibiotic combined with PEP35
Experimental: as §1, §2, §3, §4, §5

VRE = assay: Checkerboard assay (FIC index); format: cell-based, Enterococcus faecium; settings: antibiotic combined with PEP35
Experimental: as §1, §2, §3, §4, §5

CA-MRSA = assay: MIC (CLSI broth dilution), agent alone; format: cell-based, Staphylococcus aureus; settings: agent alone
Method in brief: (§6)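 S. aureus isolates were tested by CLSI 2005 broth macrodilution in doubling dilutions of cation-adjusted Mueller-Hinton broth. Inoculum was about 5×10^5 CFU/ml, with 24 h incubation in ambient air. MIC was the lowest concentration inhibiting visible growth, with an MSSA and ATCC QC strains as controls.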

HA-MRSA = assay: MIC (CLSI broth dilution), agent alone; format: cell-based, Staphylococcus aureus; settings: for MIC: agent alone; for PEP35 (MIC): peptide alone
Method in brief: as §6

MSSA = assay: MIC (CLSI broth dilution), agent alone; format: cell-based, Staphylococcus aureus; settings: for MIC: agent alone
Method in brief: as §6

[1] = S. pneumoniae-Pen I 72302 (MHB)
[2] = S. pneumoniae-Pen I 78663 (MHB)
[3] = S. pneumoniae-Pen R 76065 (MHB)
[4] = S. pneumoniae-Pen R 78519 (MHB)
[5] = S. pneumoniae-Pen S 70400 (MHB)
[6] = S. pneumoniae-Pen S 71263 (MHB)
[7] = HA-MRSA 70798 (USA100/800), in µg/mL
[8] = CA-MRSA 69615 (USA400), in µg/mL
[9] = CA-MRSA 70857 (USA400), in µg/mL
[10] = HA-MRSA 77090 (USA100/800), in µg/mL

| Molecule | Avg ΣFIC (range) (S. pneumoniae; [1]) | Avg ΣFIC (range) (S. pneumoniae; [2]) | Avg ΣFIC (range) (S. pneumoniae; [3]) | Avg ΣFIC (range) (S. pneumoniae; [4]) | Avg ΣFIC (range) (S. pneumoniae; [5]) | Avg ΣFIC (range) (S. pneumoniae; [6]) | Avg ΣFIC (range) (S. agalactiae; S. agalactiae 80870 (MHB)) | Avg ΣFIC (range) (S. agalactiae; S. agalactiae 81262 (MHB)) | Avg ΣFIC (range) (E. Faecium; E. Faecium 78024) | Avg ΣFIC (range) (E. Faecium; E. Faecium 78352) | Avg ΣFIC (range) (VRE; VRE 70769) | Avg ΣFIC (range) (VRE; VRE 77872) | MIC (HA-MRSA; [7]) | MIC (CA-MRSA; [8]) | MIC (HA-MRSA; [10]) | also measured |
| --- | --- | --- | --- | --- | --- | --- | --- | --- | --- | --- | --- | --- | --- | --- | --- | --- |
| CCCCCCCCCC(=O)N[C@@H](Cc1c[nH]c2ccccc12)C(=O)N[C@H](CC(N)=O)C(=O)N[C@@H](CC(=O)O)C(=O)N[C@@H]1C(=O)NCC(=O)N[C@@H](CCCN)C(=O)N[C@@H](CC(=O)O)C(=O)N[C@H](C)C(=O)N[C@@H](CC(=O)O)C(=O)NCC(=O)N[C@H](CO)C(=O)N[C@@H]([C@H](C)CC(=O)O)C(=O)N[C@@H](CC(=O)c2ccccc2N)C(=O)O[C@@H]1C [Daptomycin, daptomycin] | 0.99 (0.62-1.25) | 1.19 (1.03-1.5) | 1.09 (0.56-1.5) | 1.19 (1.03-1.5) | 1.21 (1.03-1.5) | 1.39 (1.03-2.5) | 0.83 (0.53-1.12) | 1.69 (1.06-2.5) | 1.19 (1.03-1.5) | 1.10 (0.75-1.5) | 0.82 (0.28-1.25) | 1.34 (1.03-1.5) |  |  |  |  |
| CC(=O)NC[C@H]1CN(c2ccc(N3CCOCC3)c(F)c2)C(=O)O1 [Linezolid, linezolid] | 0.86 (0.56-1.12) | 1.05 (0.75-1.25) | 0.74 (0.53-1.12) | 0.92 (0.75-1.12) | 0.63 (0.5-1.06) | 0.92 (0.62-1.12) | 1.1 (1.0-1.25) | 0.91 (0.53-1.25) | 1.1 (1-1.25) | 0.80 (0.5-1.06) | 1.09 (1-1.25) | 1.19 (1.03-1.5) |  |  |  |  |
| C[C@@H](O)[C@H]1C(=O)N2C(C(=O)O)=C(S[C@@H]3CN[C@H](C(=O)N(C)C)C3)[C@H](C)[C@H]12 [Meropenem] |  |  |  |  |  |  |  |  |  |  |  |  | 64 |  |  | MIC (CA-MRSA; CA-MRSA 70857 (USA400)): 2 and 4/4; MIC (HA-MRSA; HA-MRSA 77098 (USA100/800)): 64/64 |
| CN(C)c1cc(NC(=O)CNC(C)(C)C)c(O)c2c1C[C@H]1C[C@H]3[C@H](N(C)C)C(O)=C(C(N)=O)C(=O)[C@@]3(O)C(O)=C1C2=O [Tigecycline, tigecycline] | 0.68 (0.53-1.03) | 1.0 (0.56-1.12) | 0.91 (0.62-1.12) | 0.98 (0.75-1.12) | 0.91 (0.62-1.12) | 0.92 (0.56-1.25) | 1.10 (1.0-1.25) | 1.05 (0.75-1.25) | 1.19 (1.03-1.5) | 0.99 (0.75-1.12) | 1.2 (1.03-1.05) | 1.39 (1.03-2.06) |  |  |  |  |
| KKKKKLQLQLNLIKKKVQVSVVVVRRH (Reordered human peptide sequence) [Scrambled PEP35] |  |  |  |  |  |  |  |  |  |  |  |  | 256 | 256 | 512 | MIC (CA-MRSA; [9]): 256; MIC (MSSA; MSSA 79333, in µg/mL): 64 |
| LKQKIKHVVKLKVVVKLRSQLVKRKQN (listed as Mus sp.) [PEP35] |  |  |  |  |  |  |  |  |  |  |  |  | 512 | 512 | 256 and 512 | MIC (CA-MRSA; CA-MRSA (CMRSA7/USA400/MW2) isolates, one per table line): 512 µg/mL; PEP35 (MIC) (HA-MRSA; HA-MRSA (CMRSA1/USA600)): 256 µg/mL; PEP35 (MIC) (HA-MRSA; HA-MRSA (CMRSA5/USA500)): 512 µg/mL; PEP35 (MIC) (HA-MRSA; HA-MRSA (CMRSA8)): 1024 µg/mL; MIC (MSSA; MSSA 79333, in µg/mL): 128 and 256; PEP35 (MIC) (MSSA; S. aureus (printed without strain; control row), peptide alone): 1024 µg/mL; MIC (MSSA; S. aureus control): 512 µg/mL |
| piperacillin/tazobactam |  |  |  |  |  |  |  |  |  |  |  |  | 4 | 32 | 16 | MIC (CA-MRSA; [9]): 32; MIC (MSSA; MSSA 79333): ≦1 |
